Data as given in EP0292365A2, “4-Amino-5,8-quinazolindione derivatives, process for their preparation and pharmaceutical compositions containing them” (CENTRE NATIONAL DE LA RECHERCHE SCIENTIFIQUE, priority 1987, dated 1988).

Key:
cellules MCF-7 = assay: Effect on cell cycle phases, MCF-7 line; assay type: cell-based, humaine; conditions: summary of tableau D
Method: (§1) Les cellules tumorales en croissance exponentielle sont ensemencées (10.000 cellules/ml) dans des boîtes à Petri contenant au fond de la boîte un couvre-objet (18 x 18 mm) et 3 ml de MEM (MEM = milieu essentiel minimum) + 5 % FCS (FCS = serum de veau fetal) (v/v). Après 24 heures d'incubation, quand les cellules sont bien attachées au fond de la boîte, le milieu est remplacé par MEM expérimental contenant 5 % FCS (v/v) et enrichi, par exemple de : • a) 3 ml du milieu (MEM + 5 % FCS) = témoins • b) 3 ml du milieu contenant une dose élevée du composé à tester : 10 µg/ml : (M) • c) milieu contenant une faible dose du composé à tester : 0.01 µg/ml (f) respectivement aux jours 1, 2, 3 et 4 après addition du milieu expérimental dans les boîtes de Petri. Trois couvre-objets sont fixés pour chaque condition expérimentale : éthanol 95° (75 v), formol neutre à 40 % (20 v), acide acétique (5 v), pendant 10 minutes. Les cellules témoins cultivées dans le milieu expérimental sans le produit à tester sont fixées au même moment. A la fin de la fixation, les couvre-objets sont retournés et montés sur des lames histologiques à l'aide de produit commercialisé sous la marque DPX par la Société British Drug House et conservés à l'abri de la lumière et à 4° en attendant d'être colorés.
Les lames avec les couvre-objets sont colorées par une réaction de Feulgen modifiée. […]

cellules de lignée HBL = assay: Effect on in vitro cell growth, HBL line (Feulgen staining, automated scanning microscopy); assay type: cell-based, humaine; conditions: for nombre de cellules observées par champ de microscope: HBL
Method: as §1
Les lames avec les couvre-objets sont colorées par une réaction de Feulgen modifiée. Toutes les lames d'une condition expérimentale sont conditionnées par le réactif de Feulgen en même temps, pendant une heure, après hydrolyse dans un milieu HCI 6N pendant une heure à 20° C. Les préparations cellulaires sont ensuite conservées à l'abri de la lumière et à 4°C en attendant l'analyse.
Grâce à un système d'analyse microscopique à balayage automatique, on détermine l'effet de la drogue sur la croissance cellulaire, au cours du temps, sur deux lignées cellulaires tumorales d'origine humaine : la lignée MCF-7 d'origine mammaire et la lignée HBL (mélanome malin).
On a représenté dans le tableau C les résultats relatifs à l'action du composé 63 sur la croissance des cellules de lignée MCF-7 et dans le tableau C BIS, les résultats relatifs à l'action du composé 63 sur la croissance des cellules de lignée HBL. Ces résultats montrent le nombre de cellules survivant au traitement après 1, 2, 3 et 4 jours d'incubation et à trois doses différentes (10 µg/ml, 1 µg/ml et 0,1 µg/ml).
Chaque chiffre correspond au nombre de cellules observées par champ de microscope.

réticulosarcome M 5076 = assay: First trials on reticulosarcoma M 5076; assay type: in vivo; conditions: souris; doses infratoxique; premiers essais
[1] = tested on: cellules leucémiques L 1210; assay: In vitro cytotoxicity: growth inhibition of L 1210 leukemia cells (Coulter count); assay type: cell-based, souris; conditions: Mus musculus, L1210, 48 h, read-out: CI50 après 48 h de culture
Method: La détermination de la cytotoxicité in vitro sur les cellules leucémiques L 1210 est la méthode utilisée pour sélectionner les molécules potentiellement antitumorales. Le protocole mis en oeuvre est le suivant :
les cellules leucématiques L 1210 adaptées à la culture en suspension stationnaire sont entretenues dans du milieu RPMI 1640 (commercialisé par Seromed) additionné de 20 % de sérum de cheval décomplémenté, L-glutamine (2 mM), pénicilline (200 U/ml), streptomycine (50µg/ml) et cultivées à 37° C dans une atmosphère à 5 % de C02. Les cultures testées par la méthode de BARILE (BARILE M.F. Mycoplasmal contamination of cell culture, in Contamination in Tissue Culture, J. Fogh (ed.) Acad. Press, 132-156, 1973) sont exemptes de contaminations bactériennes et mycoplasmiques.
Pour les expérimentations, les cellules sont ensemencées à la concentration de 0,8.10^5 cellules/ml et cultivées par 2 ml dans des flacons de 15 ml. Les substances à étudier sont dissoutes dans du DMSO (1 % final) dont on a préalablement vérifié l'innocuité. Des quantités croissantes de produit à tester sont ajoutées au temps 0 et des numérations sont faites au compteur COULTER après 24 et 48 heures de culture. Des séries de contrôle sont effectuées avec des quantités de DMSO équivalentes à celles des séries traitées.
Le temps de doublement des cellules témoins est approximativement de 12 heures.
La cytotoxicité est déterminée d'après l'inhibition de croissance des cellules L 1210, calculée par rapport aux témoins correspondants selon la formule : [formula] • T = concentration de cellules non traitées, • t = concentration de cellules traitées.
La concentration de produit qui diminue la croissance cellulaire de 50 % (Clso) est calculée d'après la méthode des régressions linéaires en coordonnées log-probit.
Lorsque la Cl50 est voisine de la micromolarité (égale ou inférieure à 1 µM), il existe une présomption d'activité antitumorale et les essais in vivo indiqués ci-après sont effectués.
A titre d'exemple, la CI50 mesurée 48 heures après traitement des cellules par les composés de l'invention testés est la suivante : […]

## CN(C)CCCNc1ncnc2c1C(=O)C(N1CC1)=C(N1CC1)C2=O [composé 63]
Cellules MCF-7
  effet sur le cycle cellulaire (MCF-7): bloque les cellules en phase S
Cellules de lignée HBL; 0.1µg/ml (f), 1j
  nombre de cellules observées par champ de microscope: 402±100 ns
Cellules de lignée HBL; 0.1µg/ml (f), 2j
  nombre de cellules observées par champ de microscope: 233± 36
Cellules de lignée HBL; 0.1µg/ml (f), 3j
  nombre de cellules observées par champ de microscope: 633± 83 ns
Cellules de lignée HBL; 0.1µg/ml (f), 4j
  nombre de cellules observées par champ de microscope: 474±265 ns
Cellules de lignée HBL; 1µg/ml (M), 1j
  nombre de cellules observées par champ de microscope: 282± 17 ns
Cellules de lignée HBL; 1µg/ml (M), 2j
  nombre de cellules observées par champ de microscope: 187± 35
Cellules de lignée HBL; 1µg/ml (M), 3j
  nombre de cellules observées par champ de microscope: 199± 71
Cellules de lignée HBL; 1µg/ml (M), 4j
  nombre de cellules observées par champ de microscope: 197± 67
Cellules de lignée HBL; 10µg/ml (F), 1j
  nombre de cellules observées par champ de microscope: 318± 83 ns
Cellules de lignée HBL; 10µg/ml (F), 2j
  nombre de cellules observées par champ de microscope: 166± 28
Cellules de lignée HBL; 10µg/ml (F), 3j
  nombre de cellules observées par champ de microscope: 553±100 ns
Cellules de lignée HBL; 10µg/ml (F), 4j
  nombre de cellules observées par champ de microscope: 210± 48
Cellules de lignée HBL; à moyenne et forte dose, summary of tableau C BIS
  croissance des cellules HBL: ralentit faiblement la croissance
réticulosarcome M 5076
  activité sur le réticulosarcome M 5076: nette activité
[1]
  IC50: 2.7 nM
